# Source: US20230321253A1, “BIFUNCTIONAL COMPOUNDS AND PHARMACEUTICAL USES THEREOF” (RISEN (SUZHOU) PHARMA TECH CO., LTD., priority 2022, published 2023)
# What was measured:
# [1] = tested on: Aspc-1 cells; assay: Cell proliferation study in Aspc-1 cells (Cell Titer Glo); type: cell-based; conditions: Homo sapiens, ASPC1, 72 hours, read-out: IC50, inhibitory effect on cellular proliferation
# Procedure: Aspc-1 (Cobioer, CBP60546) cells were grown in RPMI 1640 (Gibco, 61870127) supplemented with 10% fetal bovine serum (Gibco, 10099141), 1% penicillin-streptomycin (Gibco, 15070-063). Aspc-1 cells in exponential growth phase were seeded into 96-well plate (Corning, 3599) at density of 4×10^3/well. Cells were cultured overnight at 37° C. with 5% CO2. On the next day, cells were treated with test compound at various concentrations for 72 hours in 37° C., 5% CO2 incubator (final DMSO concentration was 0.1%). After treatment, 100 μL Cell Tier Glo (Promega, G7573) was added to every well of the cell plates and the plates were incubated at room temperature (RT) for 10 minutes. Cell growth status was measured with Cell Tier Glo (Promega, G7573) following the manufacturer's instructions. The inhibition curve was obtained with GraphPad 7.0 software using four-parameter equation.
# [2] = target: T1, KRAS-G12D protein (Homo sapiens, UniProt P01116, G12D); assay: KRAS-G12D protein degradation study in Aspc-1 cells (western blot); type: cell-based; conditions: for inhibition at 1 µM / inhibition at 0.1 µM / inhibition at 0.05 µM: ASPC1, 24 h; for inhibition at 1 µM: Aspc-1 cells treated with 1 μM compound; for inhibition at 1 µM / inhibition at 0.1 µM: read-out: Rate of protein degradation (KRAS^G12D); for DC50: Aspc-1 cells, read-out: DC50 of test compound-induced KRAS^G12D protein degradation; for inhibition at 0.05 µM: Aspc-1 cells treated with 50 nM compound, read-out: Rate of degradation (KRAS^G12D)
# T1 construct: host or cells: Aspc-1 cells
# Procedure, shortened: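 AsPC-1 cells were treated with compound for 24 h at 37° C (0.1% DMSO final), then lysed; KRAS levels measured by western blot. Degradation % = 1 − (KRAS/GAPDH, compound) ÷ (KRAS/GAPDH, DMSO), ×100; DC50 derived from concentration curves.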
# [3] = Aspc-1 cells treated with 0.1 μM compound, 24 hours
# T1 sequence (P01116 1-188 isoform P01116-2 G12D): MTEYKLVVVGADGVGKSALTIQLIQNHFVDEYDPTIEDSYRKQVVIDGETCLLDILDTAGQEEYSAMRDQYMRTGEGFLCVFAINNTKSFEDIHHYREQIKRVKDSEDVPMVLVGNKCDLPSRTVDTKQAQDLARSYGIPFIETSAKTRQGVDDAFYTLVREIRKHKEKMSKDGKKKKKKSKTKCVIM
Compound,IC50 [1],inhibition at 1 µM ([2]; 24 hours),"inhibition at 0.1 µM [2, 3]",DC50 [2],"Rate of protein degradation (KRAS^G12D) [2, 3]",inhibition at 0.05 µM ([2]; 24 hours)
CCc1c(F)ccc2cc(O)cc(-c3ncc4c(N5CC6CCC(C5)N6)nc(OCCCN5CCN(C(=O)CCCCC(=O)N[C@H](C(=O)N6C[C@H](O)C[C@H]6C(=O)NCc6ccc(-c7scnc7C)cc6)C(C)(C)C)CC5)nc4c3F)c12 [Compound 26],1 to 5 µM,,,,,
C#Cc1c(F)ccc2cc(O)cc(-c3ncc4c(N5CC6CCC(C5)N6)nc(OCCCN5CCN(C(=O)CCCCC(=O)N[C@H](C(=O)N6C[C@H](O)C[C@H]6C(=O)NCc6ccc(-c7scnc7C)cc6)C(C)(C)C)CC5)nc4c3F)c12 [Compound 27],0.101 to 1 µM,,,,,
C#Cc1c(F)ccc2cc(O)cc(-c3ncc4c(N5CC6CCC(C5)N6)nc(OCCCN5CCN(CCCCCCC(=O)N[C@H](C(=O)N6C[C@H](O)C[C@H]6C(=O)NCc6ccc(-c7scnc7C)cc6)C(C)(C)C)CC5)nc4c3F)c12 [Compound 29],1 to 5 µM,31 to 60%,,,,
C#Cc1c(F)ccc2cc(O)cc(-c3ncc4c(N5CC6CCC(C5)N6)nc(OCCCN5CCN(CCCCCCCC(=O)N[C@H](C(=O)N6C[C@H](O)C[C@H]6C(=O)NCc6ccc(-c7scnc7C)cc6)C(C)(C)C)CC5)nc4c3F)c12 [Compound 31],1 to 5 µM,> 60%,,,,
C#Cc1c(F)ccc2cc(O)cc(-c3ncc4c(N5CC6CCC(C5)N6)nc(OCCN5CCN(CCCCCCCC(=O)N[C@H](C(=O)N6C[C@H](O)C[C@H]6C(=O)NCc6ccc(-c7scnc7C)cc6)C(C)(C)C)CC5)nc4c3F)c12 [Compound 32],1 to 5 µM,11 to 30%,,,,
C#Cc1c(F)ccc2cc(O)cc(-c3ncc4c(N5CC6CCC(C5)N6)nc(OCCCN5CCN(C(=O)CN6CCC(c7ccc8c(C9CCC(=O)NC9=O)nn(C)c8c7)CC6)CC5)nc4c3F)c12 (stereo not shown) [Compound 33],0.101 to 1 µM,> 60%,31 to 60%,,,
CCc1c(F)ccc2cc(O)cc(-c3ncc4c(N5CC6CCC(C5)N6)nc(OC[C@@H]5CCCN5C(=O)CCCCCCCC(=O)N[C@H](C(=O)N5C[C@H](O)C[C@H]5C(=O)NCc5ccc(-c6scnc6C)cc5)C(C)(C)C)nc4c3F)c12 [Compound 35],1 to 5 µM,31 to 60%,,,,
C#Cc1c(F)ccc2cc(O)cc(-c3ncc4c(N5CC6CCC(C5)N6)nc(OC5CCN(CCCCCCCC(=O)N[C@H](C(=O)N6C[C@H](O)C[C@H]6C(=O)NCc6ccc(-c7scnc7C)cc6)C(C)(C)C)CC5)nc4c3F)c12 [Compound 39],5 to 10 µM,,,,,
C#Cc1c(F)ccc2cc(O)cc(-c3ncc4c(N5CC6CCC(C5)N6)nc(OC5CCN(CCCCCCCCCC(=O)N[C@H](C(=O)N6C[C@H](O)C[C@H]6C(=O)NCc6ccc(-c7scnc7C)cc6)C(C)(C)C)CC5)nc4c3F)c12 [Compound 41],0.101 to 1 µM,> 60%,,,,
CCc1c(F)ccc2cc(O)cc(-c3ncc4c(N5CC6CCC(C5)N6)nc(OC5CCN(CCCCCCCCCC(=O)N[C@H](C(=O)N6C[C@H](O)C[C@H]6C(=O)NCc6ccc(-c7scnc7C)cc6)C(C)(C)C)CC5)nc4c3F)c12 [Compound 42],1 to 5 µM,,,,,
C#Cc1c(F)ccc2cc(O)cc(-c3ncc4c(N5CC6CCC(C5)N6)nc(OC5CCN(CCCCCCCCCCC(=O)N[C@H](C(=O)N6C[C@H](O)C[C@H]6C(=O)NCc6ccc(-c7scnc7C)cc6)C(C)(C)C)CC5)nc4c3F)c12 [Compound 43],0.101 to 1 µM,> 60%,,,,
CCc1c(F)ccc2cc(O)cc(-c3ncc4c(N5CC6CCC(C5)N6)nc(OC5CCN(CCCCCCCCCCC(=O)N[C@H](C(=O)N6C[C@H](O)C[C@H]6C(=O)NCc6ccc(-c7scnc7C)cc6)C(C)(C)C)CC5)nc4c3F)c12 [Compound 44],1 to 5 µM,31 to 60%,,,,
C#Cc1c(F)ccc2cc(O)cc(-c3ncc4c(N5CC6CCC(C5)N6)nc(OC5CCN(CCCCCCCCCCC(=O)N[C@H](C(=O)N6C[C@H](O)C[C@H]6C(=O)N[C@@H](C)c6ccc(-c7scnc7C)cc6)C(C)(C)C)CC5)nc4c3F)c12 [Compound 45],0.101 to 1 µM,> 60%,31 to 60%,,,
C#Cc1c(F)ccc2cc(O)cc(-c3ncc4c(N5CC6CCC(C5)N6)nc(OC5CCN(CCCCCCCCCCCC(=O)N[C@H](C(=O)N6C[C@H](O)C[C@H]6C(=O)NCc6ccc(-c7scnc7C)cc6)C(C)(C)C)CC5)nc4c3F)c12 [Compound 46],0.101 to 1 µM,> 60%,,,,
C#Cc1c(F)ccc2cc(O)cc(-c3ncc4c(N5CC6CCC(C5)N6)nc(OC5CCN(CCCCCCCCCCCCCC(=O)N[C@H](C(=O)N6C[C@H](O)C[C@H]6C(=O)NCc6ccc(-c7scnc7C)cc6)C(C)(C)C)CC5)nc4c3F)c12 [Compound 47],1 to 5 µM,31 to 60%,,,,
C#Cc1c(F)ccc2cc(O)cc(-c3ncc4c(N5CC6CCC(C5)N6)nc(OC5CCCN(CCCCCCCCCCC(=O)N[C@H](C(=O)N6C[C@H](O)C[C@H]6C(=O)N[C@@H](C)c6ccc(-c7scnc7C)cc6)C(C)(C)C)C5)nc4c3F)c12 (stereo partly shown) [Compound 48],1 to 5 µM,,,,,
C#Cc1c(F)ccc2cc(O)cc(-c3ncc4c(N5CC6CCC(C5)N6)nc(OC5CCCN(CCCCCCCCCCC(=O)N6CCC(c7ccc8c(C9CCC(=O)NC9=O)nn(C)c8c7)CC6)C5)nc4c3F)c12 (stereo not shown) [Compound 49],1 to 5 µM,,,,,
C#Cc1c(F)ccc2cc(O)cc(-c3ncc4c(N5CC6CCC(C5)N6)nc(OC5CCN(CCCCCCCCCC(=O)N6CCC(c7ccc8c(C9CCC(=O)NC9=O)nn(C)c8c7)CC6)CC5)nc4c3F)c12 (stereo not shown) [Compound 50],1 to 5 µM,11 to 30%,,,,
C#Cc1c(F)ccc2cc(O)cc(-c3ncc4c(N5CC6CCC(C5)N6)nc(OC5CCN(CC(=O)N6CCC7(CC6)CC(N6CCC(c8ccc9c(C%10CCC(=O)NC%10=O)nn(C)c9c8)CC6)C7)CC5)nc4c3F)c12 (stereo not shown) [Compound 82],1 to 5 µM,,> 60%,< 0.01 µM,,
C#Cc1c(F)ccc2cc(O)cc(-c3ncc4c(N5CC6CCC(C5)N6)nc(OCC5(CN6CCN(C(=O)CN7CCC(c8ccc9c(C%10CCC(=O)NC%10=O)nn(C)c9c8)CC7)CC6)CC5)nc4c3F)c12 (stereo not shown) [Compound 92],< 0.1 µM,,,< 0.01 µM,+++ (greater than 60%),
C#Cc1c(F)ccc2cc(O)cc(-c3ncc4c(N5CC6CCC(C5)N6)nc(OCC5(CN6CCC(C(=O)N7CCC8(CC7)CC(N7CCC(c9ccc%10c(C%11CCC(=O)NC%11=O)nn(C)c%10c9)CC7)C8)CC6)CC5)nc4c3F)c12 (stereo not shown) [Compound 111],< 0.1 µM,,> 60%,< 0.01 µM,,
C#Cc1c(F)ccc2cc(O)cc(-c3ncc4c(N5CC6CCC(C5)N6)nc(OCC5(CN6CCC7(CC6)CC(N6CCC(c8ccc9c(C%10CCC(=O)NC%10=O)nn(C)c9c8)CC6)C7)CC5)nc4c3F)c12 (stereo not shown) [Compound 112],< 0.1 µM,,> 60%,< 0.01 µM,,
C#Cc1c(F)ccc2cc(O)cc(-c3ncc4c(N5CC6CCC(C5)N6)nc(OCC5(CN6CCC(C(=O)N7CCC(N8CCC(c9ccc%10c(C%11CCC(=O)NC%11=O)nn(C)c%10c9)CC8)CC7)CC6)CC5)nc4c3F)c12 (stereo not shown) [Compound 129],< 0.1 µM,,,< 0.01 µM,,> 60%
C#Cc1c(F)ccc2cc(O)cc(-c3ncc4c(N5CC6CCC(C5)N6)nc(OCC5(CN6CCC(CN7CCC(c8ccc9c(C%10CCC(=O)NC%10=O)nn(C)c9c8)CC7)CC6)CC5)nc4c3F)c12 (stereo not shown) [Compound 133],< 0.1 µM,,,< 0.01 µM,,> 60%
C#Cc1c(F)ccc2cc(O)cc(-c3ncc4c(N5CC6CCC(C5)N6)nc(OCC5(CN6CCC(CN7CCN(c8cccc9c8C(=O)N(C8CCC(=O)NC8=O)C9=O)CC7)CC6)CC5)nc4c3F)c12 (stereo not shown) [Compound 135],< 0.1 µM,,,< 0.01 µM,,31 to 60%
C#Cc1c(F)ccc2cc(O)cc(-c3ncc4c(N5CC6CCC(C5)N6)nc(OCC5(CN6CCC(CN7CCC(c8ccc9c(c8)CN(C8CCC(=O)NC8=O)C9=O)CC7)CC6)CC5)nc4c3F)c12 (stereo not shown) [Compound 146],< 0.1 µM,,,< 0.01 µM,,> 60%
C#Cc1c(F)ccc2cc(O)cc(-c3ncc4c(N5CC6CCC(C5)N6)nc(OCC5(CN6CCC(CCN7CCC(c8ccc9c(C%10CCC(=O)NC%10=O)nn(C)c9c8)CC7)CC6)CC5)nc4c3F)c12 (stereo not shown) [Compound 149],< 0.1 µM,,,< 0.01 µM,,> 60%
C#Cc1c(F)ccc2cc(O)cc(-c3ncc4c(N5CC6CCC(C5)N6)nc(OCC5(CN6CCC7(CC6)CC(N6CCN(c8ccc(NC9CCC(=O)NC9=O)cc8F)CC6)C7)CC5)nc4c3F)c12 (stereo not shown) [Compound 150],< 0.1 µM,,,< 0.01 µM,,> 60%
C#Cc1c(F)ccc2cc(O)cc(-c3ncc4c(N5CC6CCC(C5)N6)nc(OCC5(CN6CCC7(CC6)CC(N6CCC(c8ccc9c(c8)C(=O)N(C8CCC(=O)NC8=O)C9=O)CC6)C7)CC5)nc4c3F)c12 (stereo not shown) [Compound 170],,,,,,31 to 60%
C#Cc1c(F)ccc2cc(O)cc(-c3ncc4c(N5CC6CCC(C5)N6)nc(OCC5(CN6CCC7(CC6)CC(N6CCC(c8cccc9c8C(=O)N(C8CCC(=O)NC8=O)C9=O)CC6)C7)CC5)nc4c3F)c12 (stereo not shown) [Compound 171],,,,,,≤ 10%
